Assay results taken from ChEMBL document CHEMBL1201862, “PubChem BioAssay data set” (2004).
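Where inhibition never reached the appropriate level, the endpoint shown equals the highest concentration tested. Otherwise, values were interpolated linearly from a five-concentration, 48-hour dose response in 96-well plates. GI50 = concentration required for 50% inhibition of growth.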 Calls of active or inactive are those of the source. Rule as the data show it: active = GI50 up to about 1.1 µM and inactive = higher.

Tests used:
Assay in all cases: NCI-60 cell line screen, 48 h
HL-60 = system: HL-60
NCI-H226 = system: NCI-H226
RPMI-8226 = system: RPMI-8226
RXF 393 = system: RXF 393
PC-3 = system: PC-3
HT-29 = system: HT-29
NCI-H23 = system: NCI-H23
Malme-3M = system: Malme-3M
MCF7 = system: MCF7
EKVX = system: EKVX
SK-MEL-5 = system: SK-MEL-5
MOLT-4 = system: MOLT-4
OVCAR-3 = system: OVCAR-3
SNB-75 = system: SNB-75
K562 = system: K562
TK-10 = system: TK-10
HOP-92 = system: HOP-92
786-0 = system: 786-0
CAKI-1 = system: CAKI-1
SF-539 = system: SF-539

Measured: GI50

c1ccc(-c2cnc(-c3ccc(-c4ncc(-c5ccccc5)o4)cc3)o2)cc1
inactive: HL-60 > 100 µM | NCI-H226 > 100 µM | RPMI-8226 > 100 µM | RXF 393 > 100 µM | PC-3 > 100 µM | HT-29 > 100 µM | NCI-H23 > 100 µM | Malme-3M > 100 µM | MCF7 > 100 µM | EKVX > 100 µM | SK-MEL-5 > 100 µM | MOLT-4 > 100 µM | OVCAR-3 > 100 µM | SNB-75 56.5 µM | K562 > 100 µM | TK-10 > 100 µM | HOP-92 > 100 µM | 786-0 > 100 µM

CN1C(=O)c2c(ccc3c2OCO3)C2C(O)Cc3cc4c(cc3C21)OCO4 (stereo not drawn)
inactive: HL-60 2.4 µM | NCI-H226 2.15 µM | CAKI-1 4.76 µM | RPMI-8226 3.83 µM | PC-3 2.58 µM | SF-539 4.57 µM | HT-29 3.3 µM | NCI-H23 5.58 µM | MCF7 7.5 µM | EKVX 3.28 µM | SK-MEL-5 5.51 µM | MOLT-4 4.04 µM | OVCAR-3 5.2 µM | SNB-75 1.89 µM | K562 4.71 µM | TK-10 7.8 µM | HOP-92 5.79 µM | 786-0 4.17 µM

CCOC(=O)c1c(N)sc2c1C(C)(C(=O)OCC)CC2 (stereo not drawn)
inactive: HL-60 96.8 µM | NCI-H226 > 100 µM | RPMI-8226 78.5 µM | RXF 393 > 100 µM | PC-3 > 100 µM | HT-29 > 100 µM | NCI-H23 > 100 µM | Malme-3M > 100 µM | MCF7 > 100 µM | EKVX 38.6 µM | SK-MEL-5 > 100 µM | MOLT-4 74.5 µM | SNB-75 88.3 µM | K562 > 100 µM | TK-10 > 100 µM | HOP-92 58.3 µM | 786-0 > 100 µM

N#Cc1nc(-c2ccccc2O)oc1N
inactive: HL-60 > 100 µM | CAKI-1 36.9 µM | RPMI-8226 20.4 µM | RXF 393 55.7 µM | PC-3 91.2 µM | HT-29 > 100 µM | MCF7 37.1 µM | EKVX 48.5 µM | SK-MEL-5 61.4 µM | MOLT-4 60.4 µM | K562 29.9 µM | TK-10 63.8 µM | HOP-92 > 100 µM | 786-0 70.1 µM

COc1ccccc1/C=C1\S/C(=N/Nc2nc(C)c(C(C)=O)s2)NC1=O
inactive: HL-60 26.1 µM | NCI-H226 5.3 µM | CAKI-1 57.3 µM | RPMI-8226 30.4 µM | RXF 393 69 µM | PC-3 43.6 µM | SF-539 44.1 µM | HT-29 42.9 µM | NCI-H23 42.1 µM | MCF7 25.6 µM | SK-MEL-5 19.7 µM | MOLT-4 35.6 µM | OVCAR-3 26.9 µM | SNB-75 24.5 µM | K562 34 µM | TK-10 40.6 µM | HOP-92 19.6 µM | 786-0 29.4 µM

O=C(O)c1cccc(Nc2c(C(=O)O)cccc2[N+](=O)[O-])c1
inactive: HL-60 > 100 µM | CAKI-1 > 100 µM | RPMI-8226 > 100 µM | PC-3 > 100 µM | SF-539 > 100 µM | HT-29 > 100 µM | NCI-H23 > 100 µM | Malme-3M 38.5 µM | MCF7 > 100 µM | EKVX > 100 µM | SK-MEL-5 > 100 µM | MOLT-4 > 100 µM | OVCAR-3 > 100 µM | SNB-75 > 100 µM | K562 > 100 µM | TK-10 > 100 µM | HOP-92 > 100 µM | 786-0 > 100 µM

FC1C2=C(SC1(F)F)C1CCC2C1 (stereo not drawn)
inactive: HL-60 > 100 µM | NCI-H226 > 100 µM | CAKI-1 > 100 µM | RPMI-8226 > 100 µM | RXF 393 > 100 µM | PC-3 > 100 µM | HT-29 > 100 µM | NCI-H23 > 100 µM | Malme-3M > 100 µM | MCF7 > 100 µM | EKVX > 100 µM | SK-MEL-5 > 100 µM | MOLT-4 > 100 µM | OVCAR-3 > 100 µM | SNB-75 > 100 µM | K562 > 100 µM | TK-10 > 100 µM | HOP-92 > 100 µM | 786-0 > 100 µM

CC(C)OC1=C(CC2(C)OCCO2)C(=O)C12OCCO2
inactive: HL-60 > 100 µM | NCI-H226 > 100 µM | CAKI-1 > 100 µM | PC-3 > 100 µM | SF-539 > 100 µM | HT-29 > 100 µM | NCI-H23 42 µM | MCF7 > 100 µM | EKVX > 100 µM | SK-MEL-5 > 100 µM | MOLT-4 > 100 µM | OVCAR-3 > 100 µM | SNB-75 > 100 µM | TK-10 > 100 µM | HOP-92 > 100 µM | 786-0 > 100 µM
